Laboratory results taken from PubChem BioAssay (NCI).
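The compound was tested at five concentrations on cells cultured in 96-well plates, with a 48-hour exposure period. Here, GI50 denotes the concentration required for 50% inhibition of growth. TGI marks complete inhibition of growth.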

Assays:
Assay in all cases: DTP human tumour cell line panel, 48 h
MALME-3M melanoma = test system: MALME-3M melanoma
DMS 114 small cell lung = test system: DMS 114 small cell lung
OVCAR-8 ovarian = test system: OVCAR-8 ovarian
HCT-116 colon = test system: HCT-116 colon
KM20L2 colon = test system: KM20L2 colon
K-562 leukemia = test system: K-562 leukemia
A498 renal = test system: A498 renal
A549 NSCLC = test system: A549 NSCLC
HCT-15 colon = test system: HCT-15 colon
CAKI-1 renal = test system: CAKI-1 renal

Compound | TGI (MALME-3M melanoma) | TGI (DMS 114 small cell lung) | TGI (OVCAR-8 ovarian) | TGI (HCT-116 colon) | TGI (KM20L2 colon) | TGI (K-562 leukemia) | TGI (A498 renal) | TGI (A549 NSCLC) | TGI (HCT-15 colon) | GI50 (MALME-3M melanoma) | GI50 (CAKI-1 renal) | TGI (CAKI-1 renal) | GI50 (OVCAR-8 ovarian) | GI50 (HCT-116 colon) | GI50 (KM20L2 colon) | GI50 (K-562 leukemia) | GI50 (A498 renal) | GI50 (A549 NSCLC) | GI50 (HCT-15 colon)
CC1(C)C2CCC13CS(=O)(=O)N1O[C@]13C(=O)O2 (some centres not stated) | > 100 µM | > 100 µM | > 100 µM | > 100 µM | > 100 µM | > 100 µM | > 100 µM | > 100 µM | > 100 µM |  |  |  |  |  |  |  |  |  | 
O=C([CH-]C(=O)c1ccccc1)c1ccccc1.O=C([CH-]C(=O)c1ccccc1)c1ccccc1.[OH-].[OH-].[Ti+4] | > 100 µM |  | > 100 µM | > 100 µM | > 100 µM | > 100 µM | > 100 µM | > 100 µM | > 100 µM | > 100 µM | 85.3 µM | > 100 µM | 55 µM | 84.3 µM | > 100 µM | 63.3 µM | 40.5 µM | > 100 µM | > 100 µM
c1ccc(P(=Nc2ccccc2N=P(c2ccccc2)(c2ccccc2)c2ccccc2)(c2ccccc2)c2ccccc2)cc1 |  | 2.68 µM | 12.2 µM | 9.64 µM | 10.3 µM | 11.2 µM | 5.56 µM | 12.6 µM |  |  |  | 3.72 µM |  |  |  |  |  |  | 
CC1(C)OCC(C(O)C2OC(C)(C)OC2/C=N\O)O1 (configuration not stated) | > 100 µM | > 100 µM | > 100 µM | > 100 µM | > 100 µM | > 100 µM | > 100 µM | > 100 µM |  |  |  |  |  |  |  |  |  |  | 
COc1ccc(/C=N/NC(=O)Cn2c(-c3ccc(S(C)(=O)=O)cc3)nc3cc(Cl)ccc32)cc1 | 46.4 µM |  | > 50 µM | > 50 µM |  | > 50 µM | 3.65 µM | > 50 µM | > 50 µM | 2.3 µM | 4.14 µM | > 50 µM | 1.79 µM | 0.445 µM |  | 0.343 µM | 0.79 µM | 1.97 µM | 0.653 µM
COc1ccc2c(c1)OC1=C(C(=O)OC1)C2c1cc(OC)c2c(c1)OCO2 (configuration not stated) | > 100 µM |  | > 100 µM | 7.16 µM |  | > 100 µM | 0.0923 µM | > 100 µM | > 100 µM | > 100 µM | 0.108 µM | > 100 µM | 0.0516 µM | 0.0366 µM |  | 0.033 µM | 0.0205 µM | 0.0459 µM | 0.0464 µM
C/C=C(\C)c1cc(O)c(C)c2c1Oc1cc(O)c(Cl)c(C)c1C(=O)O2 |  | 74.9 µM | 45.9 µM |  | 35.2 µM |  |  | 74 µM |  |  |  | > 100 µM |  |  |  |  |  |  | 
COc1ccc(OC)c(Cn2cc3c(c2)-c2oncc2CC3)c1 | 40.7 µM |  | > 100 µM | 39 µM |  | > 57.8 µM | 7.22 µM | > 100 µM | > 100 µM | 3.03 µM | 2.73 µM | > 100 µM | 5.27 µM | 3.32 µM |  | 0.762 µM | 1.73 µM | 4.42 µM | 2.92 µM
CC(C)(C)c1ccc(C(=O)Nc2sc3c(c2C(N)=O)CCC(=O)C3)cc1 | 2.66 µM |  | 4.85 µM | 1.29 µM |  |  | 9.04 µM | 3.28 µM | 2.38 µM | 0.906 µM | 0.348 µM | 1.38 µM | 0.831 µM | 0.287 µM |  | 0.127 µM | 2.83 µM | 0.688 µM | 0.408 µM
CN(CC(N)=O)C(=O)N(CCCl)N=O | > 100 µM |  | > 100 µM | > 100 µM |  | > 100 µM | > 100 µM | > 100 µM | > 100 µM |  |  | > 100 µM |  |  |  |  |  |  | 
COc1ccc(C2[C@@H](Cl)C(=O)N2c2cc(OC)c(OC)c(OC)c2)cc1Cl (some centres not stated) | 72.4 µM |  | 20.5 µM | 15.2 µM |  | > 100 µM | 0.263 µM | > 100 µM | > 100 µM | 20.7 µM | 0.146 µM | > 100 µM | 0.272 µM | 0.0721 µM |  | 0.041 µM | 0.0285 µM | 0.364 µM | 0.191 µM
COc1ccc(C=O)c(NC(=O)C(C)C)c1 | 94.4 µM | 88.7 µM | > 100 µM | 31.2 µM | > 100 µM | > 100 µM | > 100 µM | > 100 µM | > 100 µM |  |  |  |  |  |  |  |  |  | 
Cc1c(C2=C(c3cn(C)c4ccccc34)C(=O)NC2=O)c2ccccc2n1C | > 25 µM |  | > 25 µM | > 25 µM |  | > 25 µM | 11.2 µM | > 25 µM | > 25 µM | > 25 µM | 1.81 µM | > 25 µM | 10.8 µM | 1.38 µM |  | 1.21 µM | 1.91 µM | 1.74 µM | 1.3 µM
COc1cc(/C=C/[N+](=O)[O-])cc(Br)c1OC | 8.13 µM |  | 13.1 µM | 3.22 µM |  | > 100 µM | 8.53 µM | 22 µM | 8.98 µM | 2.61 µM | 1.89 µM | 5.23 µM | 3.54 µM | 1.78 µM |  | 2.21 µM | 2.03 µM | 7.84 µM | 2.68 µM
CCN1C(=O)N(CC)C2C1NN=c1s/c(=C3\C(=O)N(CCc4ccccc4)c4ccccc43)c(=O)n12 (configuration not stated) | 20 µM |  | > 43.1 µM | 1.4 µM |  | > 100 µM | 0.603 µM | > 39.5 µM | > 34.2 µM | 1.04 µM | 0.65 µM | 3.11 µM | 0.74 µM | 0.347 µM |  | 0.353 µM | 0.115 µM | 0.638 µM | 0.351 µM
O=C(O)COc1c(Cl)cc(Cl)c2cccnc12 | > 100 µM |  | > 100 µM | > 100 µM |  | > 100 µM | > 100 µM | > 100 µM | > 100 µM |  |  | > 100 µM |  |  |  |  |  |  | 
O=C(Nc1cccc(Nc2ncc(Br)c(NCCc3cnc[nH]3)n2)c1)N1CCCC1 | 20 µM |  | 24.8 µM | > 60 µM |  | > 64.9 µM | 16.6 µM | > 67.1 µM | > 67 µM | 6.19 µM | 7.14 µM | 33.2 µM | 8.44 µM | 1.56 µM |  | 2.84 µM | 4.31 µM | 7.56 µM | 21.7 µM
CC1(C)OC2C(=O)C=C(COCc3ccccc3)C2O1 (configuration not stated) | 45 µM |  | > 100 µM | 54.3 µM |  | > 100 µM | > 100 µM | > 100 µM | > 100 µM |  |  | > 100 µM |  |  |  |  |  |  | 
Nc1ccc(-c2nc3ccccc3[nH]2)c2ccccc12 | 21.6 µM |  | 65.1 µM | 12.6 µM |  | > 100 µM | 15 µM | 50.3 µM | 20.8 µM | 1.36 µM | 2.23 µM | > 53.7 µM | 5.2 µM | 3.3 µM |  | 2.54 µM | 1.07 µM | 6.6 µM | 6.35 µM
CN(C)c1ccc(N=Nc2ccncc2)cc1 | > 100 µM |  | > 100 µM | > 100 µM |  | > 100 µM | > 100 µM | > 100 µM | > 100 µM |  |  | > 100 µM |  |  |  |  |  |  | 
CC1=CC(=O)C(O)C2(C)C1CC(O)C13COC4(C)C(OC(=O)C41)C(O)C23 (configuration not stated) | 37.4 µM |  | 25.2 µM | 19.3 µM |  | > 100 µM | 54.4 µM | 34 µM | 23.4 µM | 10.1 µM | 10.4 µM | 54.4 µM | 5.57 µM | 4.11 µM |  | 5.48 µM | 18 µM | 5.49 µM | 4.47 µM
COc1ccc(C(Cl)=C(c2ccc(OCCN(C)C)cc2)c2ccc(OCCN(C)C)cc2)cc1 | 3.35 µM | 3.06 µM | 4.06 µM | 2.68 µM | 2.74 µM | 3.69 µM |  | 3.67 µM | 3.58 µM |  |  | 16.3 µM |  |  |  |  |  |  | 
O=C(Oc1cccnc1)c1ccsc1Nc1ccnc(C(F)(F)F)c1 | > 100 µM |  | > 100 µM | > 100 µM |  | > 100 µM | 76.2 µM | > 100 µM | > 100 µM | 45.6 µM | 3.82 µM | > 100 µM | 4.14 µM | 3.95 µM |  | 3.74 µM | 31.1 µM | 7.68 µM | 3.49 µM
CC(C)=CCC/C(C)=C/CC/C(C)=C/CC/C=C(\C)CC/C=C(\C)CCC(=O)Nc1ccn(C2OC(CO)C(O)C2(F)F)c(=O)n1 (configuration not stated) | 6.71 µM |  | > 100 µM | 1.14 µM |  | 24.9 µM | 18.5 µM | 28.3 µM | 28 µM | 0.438 µM | 0.042 µM | 9.85 µM | 0.0652 µM | 0.0314 µM |  | 0.989 µM | 0.0695 µM | 0.344 µM | 0.691 µM
CN1CCC(n2cnc(-c3ccc(F)cc3)c2-c2ccnc(N)n2)CC1 | > 25 µM |  | > 25 µM | > 25 µM |  | > 25 µM | > 23.5 µM | > 25 µM | > 25 µM | 8.77 µM | 7.63 µM | > 24.1 µM | 6.3 µM | 8.19 µM |  | 11.6 µM | 5.85 µM | 7.47 µM | 10.5 µM
Cc1ccc(NC(=O)c2ccccc2C(=O)O)cc1C | > 100 µM |  | > 100 µM | > 100 µM |  | > 100 µM | > 100 µM | > 100 µM | > 100 µM |  |  | > 100 µM |  |  |  |  |  |  | 
CSC(=S)N/N=C(\C)c1cccc(C)n1 | 10 µM |  | 28.1 µM | 1.84 µM |  | > 7.8 µM | 10.5 µM | 29.1 µM | 48.1 µM |  |  | 23.6 µM |  |  |  |  |  |  | 
